According to BigSolDB 2.1:

Nc1cc(Cl)nnc1Cl
Settings	solubility (mole fraction)
in 1,4-dioxane, 289.15 K	0.00294
in 1,4-dioxane, 293.65 K	0.00365
in 1,4-dioxane, 298.15 K	0.00427
in 1,4-dioxane, 303.15 K	0.00556
in 1,4-dioxane, 308.15 K	0.0066
in 1,4-dioxane, 313.15 K	0.00811
in 1,4-dioxane, 318.15 K	0.00982
in 1,4-dioxane, 323.15 K	0.0121
in THF, 290.05 K	0.0443
in THF, 295.15 K	0.0484
in THF, 299.15 K	0.0517
in THF, 303.15 K	0.0556
in THF, 305.15 K	0.057
in THF, 308.15 K	0.0604
in THF, 313.65 K	0.0648
in THF, 318.15 K	0.0688
in THF, 323.15 K	0.0752
in acetone, 295.65 K	0.0244
in acetone, 298.15 K	0.0258
in acetone, 300.65 K	0.0276
in acetone, 303.15 K	0.0293
in acetone, 305.65 K	0.0311
in acetone, 308.15 K	0.0327
in acetone, 310.65 K	0.0342
in acetone, 313.15 K	0.036
in acetone, 315.65 K	0.0377
in acetone, 318.15 K	0.0393
in acetone, 320.65 K	0.041
in acetone, 323.15 K	0.0427
in dichloromethane, 295.15 K	7.41e-05
in dichloromethane, 297.15 K	0.000111
in dichloromethane, 299.15 K	0.000174
in dichloromethane, 301.15 K	0.000262
in dichloromethane, 303.15 K	0.000387
in dichloromethane, 305.15 K	0.000543
in dichloromethane, 307.15 K	0.000811
in dichloromethane, 309.15 K	0.00117
in ethyl acetate, 295.65 K	0.00111
in ethyl acetate, 298.15 K	0.00134
in ethyl acetate, 300.65 K	0.00159
in ethyl acetate, 303.15 K	0.00192
in ethyl acetate, 305.65 K	0.00235
in ethyl acetate, 308.15 K	0.00303
in ethyl acetate, 310.65 K	0.00371
in ethyl acetate, 313.15 K	0.0049
in ethyl acetate, 315.65 K	0.00577
in methanol, 295.65 K	0.0142
in methanol, 298.15 K	0.0153
in methanol, 300.65 K	0.0161
in methanol, 303.15 K	0.0169
in methanol, 305.65 K	0.0178
in methanol, 308.15 K	0.0189
in methanol, 310.65 K	0.0201
in methanol, 313.15 K	0.0214
in methanol, 315.65 K	0.0229
